Among the data in US10793563B2, “GCN2 inhibitors and uses thereof” (Merck Patent GmbH, priority 2018, dated 2020) are IC50 and Ki values, retold here.

One test concerns the target GCN2 kinase (Homo sapiens (Human), UniProt Q9P2K8). Put plainly: GCN2 Enzyme Inhibition Assay (Transcreener ADP2 fluorescence polarization). It is filed as biochemical. The conditions noted are these: 280 μM ATP, 200 μM (RS)7 peptide, 4 nM GCN2, 25° C.; for Ki: Ki(app). The method in brief:
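At 25 °C, GCN2 kinase (typical final concentration 4 nM) and (RS)7 peptide in Tris-HCl pH 7.5 buffer with MgCl2, NaCl and DTT were preincubated with compound for 10 min, then ATP was added for a 1 h reaction. ADP was read by FP with antibody/Alexa633 tracer. Non-linear tight-binding analysis gave IC50 and apparent Ki.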
A general note: Polarisation of emitted light reports the rotation of a fluorescent probe.

In test [1] the target is intracellular GCN2 (phosphorylation of the GCN2 substrate eIF2α) (Homo sapiens (Human), UniProt Q9P2K8). Put plainly: GCN2 Cellular Inhibition Assay (AlphaScreen SureFire P-eIF2α Ser51, borrelidin-treated U2OS cells). The class given is cell-based. Conditions: 10 μM borrelidin, 1 h, phosphorylated eIF2α Ser51, read-out: GCN2 Biomarker (IC50). The method in brief: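 Phospho-eIF2α (Ser51) measured by AlphaScreen SureFire in lysates of U2OS cells stimulated 1 h at 37 °C with 10 μM borrelidin alongside compound, 4-fold dilutions from 40 μM. Inhibition expressed as percent relative to borrelidin-alone controls.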
Chain of intracellular GCN2 (phosphorylation of the GCN2 substrate eIF2α) (Q9P2K8 whole entry): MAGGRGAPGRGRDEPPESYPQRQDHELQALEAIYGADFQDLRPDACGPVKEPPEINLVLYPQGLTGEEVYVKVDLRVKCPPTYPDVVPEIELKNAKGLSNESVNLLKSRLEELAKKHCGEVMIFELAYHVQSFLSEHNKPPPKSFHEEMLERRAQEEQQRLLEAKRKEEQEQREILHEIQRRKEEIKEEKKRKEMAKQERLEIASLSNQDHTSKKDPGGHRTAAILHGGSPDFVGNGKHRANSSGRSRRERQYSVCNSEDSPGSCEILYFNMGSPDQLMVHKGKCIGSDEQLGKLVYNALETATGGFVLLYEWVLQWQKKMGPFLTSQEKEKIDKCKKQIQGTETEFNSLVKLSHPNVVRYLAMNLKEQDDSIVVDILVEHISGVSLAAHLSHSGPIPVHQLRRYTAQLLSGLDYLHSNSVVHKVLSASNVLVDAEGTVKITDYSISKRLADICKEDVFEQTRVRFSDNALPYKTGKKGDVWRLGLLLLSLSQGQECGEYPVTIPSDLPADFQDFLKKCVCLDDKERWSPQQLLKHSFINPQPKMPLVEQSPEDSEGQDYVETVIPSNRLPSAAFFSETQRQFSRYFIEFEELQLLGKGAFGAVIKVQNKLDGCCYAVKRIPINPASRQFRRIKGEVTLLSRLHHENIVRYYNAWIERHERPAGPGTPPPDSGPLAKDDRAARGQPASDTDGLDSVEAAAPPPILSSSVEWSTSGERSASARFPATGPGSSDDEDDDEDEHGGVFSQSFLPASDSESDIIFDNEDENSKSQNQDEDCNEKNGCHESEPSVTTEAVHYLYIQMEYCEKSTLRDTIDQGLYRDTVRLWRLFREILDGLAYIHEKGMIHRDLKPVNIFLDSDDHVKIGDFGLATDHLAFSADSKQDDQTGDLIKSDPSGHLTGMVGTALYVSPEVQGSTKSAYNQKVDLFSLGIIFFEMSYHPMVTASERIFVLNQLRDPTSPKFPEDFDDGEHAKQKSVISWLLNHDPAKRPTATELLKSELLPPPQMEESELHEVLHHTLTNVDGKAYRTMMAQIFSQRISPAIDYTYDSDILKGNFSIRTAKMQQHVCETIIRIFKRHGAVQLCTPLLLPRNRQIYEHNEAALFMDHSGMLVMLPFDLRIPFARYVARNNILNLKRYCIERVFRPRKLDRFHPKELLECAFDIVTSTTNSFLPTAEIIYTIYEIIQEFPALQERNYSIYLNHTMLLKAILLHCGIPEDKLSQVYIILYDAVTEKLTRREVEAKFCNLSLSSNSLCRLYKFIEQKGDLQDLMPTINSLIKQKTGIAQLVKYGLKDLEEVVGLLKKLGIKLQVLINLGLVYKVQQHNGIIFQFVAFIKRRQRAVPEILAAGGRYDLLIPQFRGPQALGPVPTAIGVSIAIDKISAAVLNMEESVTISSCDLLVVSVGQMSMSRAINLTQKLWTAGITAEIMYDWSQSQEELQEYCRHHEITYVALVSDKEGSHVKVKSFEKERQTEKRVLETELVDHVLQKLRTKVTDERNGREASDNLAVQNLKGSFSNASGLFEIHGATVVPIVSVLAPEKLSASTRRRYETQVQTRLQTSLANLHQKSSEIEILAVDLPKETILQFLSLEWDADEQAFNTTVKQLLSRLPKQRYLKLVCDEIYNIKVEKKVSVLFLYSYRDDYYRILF
For orientation: Alpha assays give light when donor and acceptor beads are brought close together.

Each structure is given as a SMILES string.

Chain of GCN2 kinase (Q9P2K8 whole entry): as above

The IC50 is the concentration that inhibits the measured activity by half. Consider `FC(F)(F)c1ccc2ncc(-c3nccc(N4CCN(CC5C6COCC65)C(c5cn[nH]c5)C4)n3)n2c1` (centres unmarked) [I-370, 3-(4-(4-((3-oxabicyclo[3.1.0]hexan-6-yl)methyl)-3-(1H-pyrazol-4-yl)piperazin-1-yl)pyrimidin-2-yl)-6-(trifluoromethyl)imidazo[1,2-a]pyridine], for which the IC50 against GCN2 kinase is less than 10 nM; in test [1] it was less than 500 nM.
For the compound `CS(=O)(=O)NC[C@@H]1CN(c2nccc(-c3cnc4ccc(C(F)F)cn34)n2)CCO1` [I-17, N-[[(2S)-4-[4-[6-(Difluoromethyl)imidazo[1,2-a]pyridin-3-yl]pyrimidin-2-yl]morpholin-2-yl]methyl]methanesulfonamide], the Ki on GCN2 kinase was less than 10 nM. In addition, the IC50 in test [1] was less than 500 nM.
`Cc1[nH]ncc1C1CN(c2ccnc(-c3cnc4ccc(Cl)cn34)n2)CC(C)N1` (centres unmarked) [I-267, 6-chloro-3-(4-(3-methyl-5-(5-methyl-1H-pyrazol-4-yl)piperazin-1-yl)pyrimidin-2-yl)imidazo[1,2-a]pyridine]: the concentration for half-maximal inhibition (IC50) at GCN2 kinase lay in the range of 10 to 100 nM; in test [1] it was 500 to 5000 nM.
Consider `O=C(c1c[nH]cn1)N1CCN(c2ccnc(-c3cnc4ccc(C(F)(F)F)cn34)n2)CC1c1cn[nH]c1` (centres unmarked) [I-445, (2-(1H-pyrazol-4-yl)-4-(2-(6-(trifluoromethyl)imidazo[1,2-a]pyridin-3-yl)pyrimidin-4-yl)piperazin-1-yl)(1H-imidazol-4-yl)methanone], for which the values for the IC50 (against GCN2 kinase; in test [1]) were 10 to 100 nM and 500 to 5000 nM, respectively.
For the compound `CS(=O)(=O)N1CC2(CCCN(c3ccnc(-c4cnc5ccc(C(F)F)cn45)n3)C2)C1` [I-395, 6-(2-(6-(difluoromethyl)imidazo[1,2-a]pyridin-3-yl)pyrimidin-4-yl)-2-(methylsulfonyl)-2,6-diazaspiro[3.5]nonane], the half-inhibitory concentration (IC50) on GCN2 kinase lay within 100 to 1000 nM; in test [1], 500 to 5000 nM.
Turning to `CS(=O)(=O)NC1CC(C(F)(F)F)CN(c2nccc(-c3cnc4ccc(C(F)F)cn34)n2)C1` (centres unmarked) [I-525, N-(1-(4-(6-(difluoromethyl)imidazo[1,2-a]pyridin-3-yl)pyrimidin-2-yl)-5-(trifluoromethyl)piperidin-3-yl)methanesulfonamide], the IC50 on GCN2 kinase fell in the range of 10 to 100 nM; in test [1], 500 to 5000 nM.
The like results for `Cc1[nH]ncc1[C@@H]1CN(c2nccc(-c3cnc4ccc(Cl)cn34)n2)C[C@@H](C)O1` (stereo in doubt) [I-182, (2R,6R)-4-(4-(6-chloroimidazo[1,2-a]pyridin-3-yl)pyrimidin-2-yl)-2-methyl-6-(5-methyl-1H-pyrazol-4-yl)morpholine] were, in that order, 10 to 100 nM and less than 500 nM.
For `COc1cc(-c2cnc3ccc(Cl)cn23)nc(N2C[C@H](C)C[C@@H](c3cn[nH]c3)C2)n1` [I-280, 6-chloro-3-(6-methoxy-2-((3R,5S)-3-methyl-5-(1H-pyrazol-4-yl)piperidin-1-yl)pyrimidin-4-yl)imidazo[1,2-a]pyridine], the half-maximal inhibitory concentration (IC50) was 10 to 100 nM on GCN2 kinase and less than 500 nM in test [1].
For the compound `FC(F)(F)c1ccc2ncc(-c3nccc(N4CCCC(n5cncn5)C4)n3)n2c1` (centres unmarked) [I-356, 3-(4-(3-(1H-1,2,4-triazol-1-yl)piperidin-1-yl)pyrimidin-2-yl)-6-(trifluoromethyl)imidazo[1,2-a]pyridine], the 50% inhibitory concentration (IC50) on GCN2 kinase was in the range of 10 to 100 nM; in test [1], 500 to 5000 nM.
The matching figures for `C[C@@H]1[C@H]([C@@H](C)NS(C)(=O)=O)N(C2CC2)CCN1c1ccnc(-c2cnc3ccc(C(F)(F)F)cn23)n1` [I-505, N—((R)-1-((2R,3R)-1-cyclopropyl-3-methyl-4-(2-(6-(trifluoromethyl)imidazo[1,2-a]pyridin-3-yl)pyrimidin-4-yl)piperazin-2-yl)ethyl)methanesulfonamide]: 100 to 1000 nM and greater than 5000 nM.
`Cc1[nH]ncc1[C@H]1C[C@@H](N=S(C)(C)=O)CN(c2ccnc(-c3cnc4ccc(C(F)(F)F)cn34)n2)C1` [I-342, dimethyl(((3R,5R)-5-(5-methyl-1H-pyrazol-4-yl)-1-(2-(6-(trifluoromethyl)imidazo[1,2-a]pyridin-3-yl)pyrimidin-4-yl)piperidin-3-yl)imino)-λ6-sulfanone]: the IC50 on GCN2 kinase was 10 to 100 nM; in test [1] it was less than 500 nM.
For the compound `O=S(=O)(NC1CC1)c1ccc2ncc(-c3nccc(N4CCCC(c5cn[nH]c5)C4)n3)n2c1` (centres unmarked) [I-318, 3-(4-(3-(1H-pyrazol-4-yl)piperidin-1-yl)pyrimidin-2-yl)-N-cyclopropylimidazo[1,2-a]pyridine-6-sulfonamide], the 50% inhibitory concentration (IC50) on GCN2 kinase was 100 to 1000 nM; in test [1], greater than 5000 nM.
The like results for `CC(C)(C(=O)O)C1CCCN(c2ccnc(-c3cnc4ccc(Cl)cn34)n2)C1` (centres unmarked) [I-284, 2-(1-(2-(6-chloroimidazo[1,2-a]pyridin-3-yl)pyrimidin-4-yl)piperidin-3-yl)-2-methylpropanoic acid] were, in that order, 10 to 100 nM and greater than 5000 nM.
As to `C[C@H](NS(C)(=O)=O)[C@@H]1[C@H](C)N(c2ccnc(-c3cnc4ccc(C(F)(F)F)cn34)n2)CCN1C1CC1` [I-500, N—((S)-1-((2S,3 S)-1-cyclopropyl-3-methyl-4-(2-(6-(trifluoromethyl)imidazo[1,2-a]pyridin-3-yl)pyrimidin-4-yl)piperazin-2-yl)ethyl)methanesulfonamide], the half-inhibitory concentration (IC50) against GCN2 kinase is 100 to 1000 nM; in test [1] it was 500 to 5000 nM.
As for `Cc1cc(-c2cnc3ccc(N4CC(F)(F)C4)cn23)nc(N2C[C@H](C)C[C@H](c3cn[nH]c3)C2)n1` [I-288, 6-(3,3-difluoroazetidin-1-yl)-3-(6-methyl-2-((3R,5R)-3-methyl-5-(1H-pyrazol-4-yl)piperidin-1-yl)pyrimidin-4-yl)imidazo[1,2-a]pyridine], the IC50 against GCN2 kinase was less than 10 nM; in test [1], less than 500 nM.
At GCN2 kinase, `CC1CC(C(N)=O)CN(c2ccnc(-c3cnc4ccc(C(F)(F)F)cn34)n2)C1` (centres unmarked) [I-149, 5-Methyl-1-[2-(6-trifluoromethyl-imidazo[1,2-a]pyridin-3-yl)-pyrimidin-4-yl]-piperidine-3-carboxylic acid amide] came in with a half-maximal inhibitory concentration (IC50) of less than 10 nM and a Ki of less than 10 nM. In addition, the IC50 in test [1] was less than 500 nM.
For the compound `C[C@H](NS(C)(=O)=O)[C@H]1CN(c2ccnc(-c3cnc4ccc(C(F)(F)F)cn34)n2)CCO1` (stereo in doubt) [I-405, N—((S)-1-((R)-4-(2-(6-(trifluoromethyl)imidazo[1,2-a]pyridin-3-yl)pyrimidin-4-yl)morpholin-2-yl)ethyl)methanesulfonamide], the results for the IC50 (against GCN2 kinase; in test [1]) were 10 to 100 nM and 500 to 5000 nM, respectively.
As for `CC1(C)CC1CN1CCN(c2ccnc(-c3cnc4ccc(C(F)(F)F)cn34)n2)CC1c1cn[nH]c1` (centres unmarked) [I-477, 3-(4-(4-((2,2-dimethylcyclopropyl)methyl)-3-(1H-pyrazol-4-yl)piperazin-1-yl)pyrimidin-2-yl)-6-(trifluoromethyl)imidazo[1,2-a]pyridine], the concentration for half-maximal inhibition (IC50) on GCN2 kinase is 10 to 100 nM; in test [1], less than 500 nM.
The like results for `C[C@@H](NS(C)(=O)=O)[C@H]1CN(c2ccnc(-c3cnc4ccc(C(F)(F)F)cn34)n2)CCO1` [I-406, N—((R)-1-((R)-4-(2-(6-(trifluoromethyl)imidazo[1,2-a]pyridin-3-yl)pyrimidin-4-yl)morpholin-2-yl)ethyl)methanesulfonamide] were, in that order, 10 to 100 nM and 500 to 5000 nM.
Consider `C[C@H]1CN(c2ccnc(-c3cnc4ccc(Cl)cn34)n2)C[C@H](c2cn[nH]c2F)O1` (stereo in doubt) [I-175, (2S,6S)-4-(2-(6-chloroimidazo[1,2-a]pyridin-3-yl)pyrimidin-4-yl)-2-(5-fluoro-1H-pyrazol-4-yl)-6-methylmorpholine], for which the IC50 was less than 10 nM against GCN2 kinase and less than 500 nM in test [1].
Compound `Cc1noc([C@@H]2CN(c3ccnc(-c4cnc5ccc(Cl)cn45)n3)C[C@H](C)O2)n1` [I-62] gave a Ki on GCN2 kinase of 10 to 100 nM. In addition, in test [1], the IC50 lay within 500 to 5000 nM.
For `CC1(C)CN(c2ccnc(-c3cnc4ccc(C(F)(F)F)cn34)n2)CC2(CN(S(C)(=O)=O)C2)O1` [I-304, 6,6-dimethyl-2-(methylsulfonyl)-8-(2-(6-(trifluoromethyl)imidazo[1,2-a]pyridin-3-yl)pyrimidin-4-yl)-5-oxa-2,8-diazaspiro[3.5]nonane], the half-inhibitory concentration (IC50) lay in the range of 10 to 100 nM against GCN2 kinase and 500 to 5000 nM in test [1].
Consider `CC(=O)N1CCN(c2cccc(-c3cnc4ccc(C(F)(F)F)cn34)n2)CC1` [I-11, 1-[4-[6-[6-(Trifluoromethyl)imidazo[1,2-a]pyridin-3-yl]-2-pyridyl]piperazin-1-yl]ethanone], for which the Ki at GCN2 kinase was in the range of 10 to 100 nM. The IC50 in test [1] was greater than 5000 nM.
On to `CC1CN(c2ccnc(-c3cnc4ccc(Cl)cn34)n2)CC(c2cn[nH]c2)N1` (centres unmarked) [I-266, 6-chloro-3-(4-(3-methyl-5-(1H-pyrazol-4-yl)piperazin-1-yl)pyrimidin-2-yl)imidazo[1,2-a]pyridine], for which the half-maximal inhibitory concentration (IC50) against GCN2 kinase is less than 10 nM; in test [1] it was less than 500 nM.
As for `FC(F)(F)c1ccc2ncc(-c3nccc(N4CCN(CC5CC56CCOCC6)C(c5cn[nH]c5)C4)n3)n2c1` (centres unmarked) [I-476, 4-[4-({6-oxaspiro[2.5]octan-1-yl}methyl)-3-(1H-pyrazol-4-yl)piperazin-1-yl]-2-[6-(trifluoromethyl)imidazo[1,2-a]pyridin-3-yl]pyrimidine], the figures for the 50% inhibitory concentration (IC50) (on GCN2 kinase; in test [1]) were less than 10 nM and less than 500 nM, respectively.
With `C[C@@H]1C[C@@H](c2cn[nH]c2)CN(c2nccc(-c3cnc4ccc(N5CC(F)(F)C5)cn34)n2)C1` [I-261, 6-(3,3-difluoroazetidin-1-yl)-3-(2-((3R,5S)-3-methyl-5-(1H-pyrazol-4-yl)piperidin-1-yl)pyrimidin-4-yl)imidazo[1,2-a]pyridine], the half-inhibitory concentration (IC50) against GCN2 kinase is less than 10 nM; in test [1], less than 500 nM.
